Patent US20230102554A1 (GB002, INC., priority 2019, published 2023)

Assays:
[1] = target: T1, Human PDGFRα, cytoplasmic domain (GST-PDGFRα) (Homo sapiens, UniProt P16234); experiment: Human PDGFRα biochemical inhibition assay (off-chip Mobility Shift Assay)
T1 construct: made in house

[2] = target: T2, Human PDGFRβ, cytoplasmic domain (GST-PDGFRβ) (Homo sapiens, UniProt P09619); experiment: Human PDGFRβ biochemical inhibition assay (off-chip Mobility Shift Assay)
T2 construct: made in house
Summary of the method: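 GST-tagged cytoplasmic domain (aa 557-1106) from baculovirus was incubated 1 h at room temperature with compound, CSKtide, ATP at Km and Mg²⁺ in HEPES buffer, pH 7.5. Phosphorylated and unphosphorylated peptide were separated by off-chip mobility shift, and the product ratio P/(P+S) gave percent inhibition.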

T1 sequence (P16234 550-1089 T674I): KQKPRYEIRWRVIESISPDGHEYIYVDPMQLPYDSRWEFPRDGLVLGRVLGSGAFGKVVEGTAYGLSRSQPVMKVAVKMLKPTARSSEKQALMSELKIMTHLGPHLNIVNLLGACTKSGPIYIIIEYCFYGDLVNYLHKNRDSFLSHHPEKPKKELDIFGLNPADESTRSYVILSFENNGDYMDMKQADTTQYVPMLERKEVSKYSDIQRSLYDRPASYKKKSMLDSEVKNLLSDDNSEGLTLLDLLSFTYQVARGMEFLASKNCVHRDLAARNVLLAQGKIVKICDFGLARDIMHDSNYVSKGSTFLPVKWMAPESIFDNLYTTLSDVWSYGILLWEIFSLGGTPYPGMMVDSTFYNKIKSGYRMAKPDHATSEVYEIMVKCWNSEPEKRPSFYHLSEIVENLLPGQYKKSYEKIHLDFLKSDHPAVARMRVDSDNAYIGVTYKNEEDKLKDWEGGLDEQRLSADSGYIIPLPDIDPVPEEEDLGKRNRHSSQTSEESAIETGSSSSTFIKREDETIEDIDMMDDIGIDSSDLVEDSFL
T2 sequence (P09619 with tags, fused parts or gaps): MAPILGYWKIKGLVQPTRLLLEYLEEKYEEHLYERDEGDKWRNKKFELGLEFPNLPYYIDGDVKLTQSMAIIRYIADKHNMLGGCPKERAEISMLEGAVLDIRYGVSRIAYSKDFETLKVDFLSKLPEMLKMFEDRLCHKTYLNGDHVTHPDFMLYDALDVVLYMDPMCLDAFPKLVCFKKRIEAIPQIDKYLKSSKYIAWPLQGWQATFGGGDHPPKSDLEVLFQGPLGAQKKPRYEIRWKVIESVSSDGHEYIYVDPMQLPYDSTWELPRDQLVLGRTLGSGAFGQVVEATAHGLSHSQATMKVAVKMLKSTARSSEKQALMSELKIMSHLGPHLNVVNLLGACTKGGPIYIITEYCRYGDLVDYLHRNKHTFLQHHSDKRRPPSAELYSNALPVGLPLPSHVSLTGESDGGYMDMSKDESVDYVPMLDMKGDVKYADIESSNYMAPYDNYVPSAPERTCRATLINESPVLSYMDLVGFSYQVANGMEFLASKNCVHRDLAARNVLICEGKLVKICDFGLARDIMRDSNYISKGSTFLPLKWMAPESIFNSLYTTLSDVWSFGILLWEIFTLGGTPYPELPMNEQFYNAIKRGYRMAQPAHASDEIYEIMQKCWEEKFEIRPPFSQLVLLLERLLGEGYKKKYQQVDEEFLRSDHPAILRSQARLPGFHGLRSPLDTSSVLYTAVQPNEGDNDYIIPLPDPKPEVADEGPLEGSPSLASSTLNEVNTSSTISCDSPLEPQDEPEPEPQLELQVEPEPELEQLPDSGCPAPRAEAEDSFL

Compound | IC50 [1] | IC50 [2]
CCc1ccc(CC(=O)Nc2ccc(C)c([C@H](C)Nc3cnc4cn(CC)nc4n3)c2)nc1 [Compound 713, (S)-N-(3-(1-((2-ethyl-2H-pyrazolo[3,4-b]pyrazin-6-yl)amino)ethyl)-4-methylphenyl)-2-(5-ethylpyridin-2-yl) acetamide] | < 300 nM | 300 to 1000 nM
CCn1cc2ncc(N[C@@H](C)c3cccc(NC(=O)c4ccc(CN5CC[C@H](O)C5)c(Cl)c4)c3)nc2n1 [Compound 494, 3-chloro-N-(3-((5)-1-((2-ethyl-2H-pyrazolo[3,4-b]pyrazin-6-yl)amino)ethyl)phenyl)-4-(((S)-3-hydroxypyrrolidin-1-yl)methyl) benzamide] | < 300 nM | < 300 nM
CCn1cc2ncc(N[C@@H](C)c3cccc(NC(=O)c4cnc(Cl)c(C)c4)c3)nc2n1 [Compound 383, (S)-6-chloro-N-(3-(1-((2-ethyl-2H-pyrazolo[3,4-b]pyrazin-6-yl)amino)ethyl)phenyl)-5-methylnicotinamide] | < 300 nM | < 300 nM
Cc1c[nH]c2ncc(N[C@@H](C)c3cccc(NC(=O)c4ccc(OC(F)(F)F)nc4)c3)nc12 [Compound 568, (S)-N-(3-(1-((7-methyl-5H-pyrrolo[2,3-b]pyrazin-2-yl)amino)ethyl)phenyl)-6-(trifluoromethoxy)nicotinamide] | 300 to 1000 nM | ≥ 1000 nM
CCn1cc2ncc(N[C@@H](C)c3cccc(NC(=O)c4ccc(CN5CC[C@@H](O)C5)c(C)c4)c3)nc2n1 [Compound 482, N-(3-((S)-1-((2-ethyl-2H-pyrazolo[3,4-b]pyrazin-6-yl)annno)ethyl)phenyl)-4-(((R)-3-hydroxypyrrolidin-1-yl)methyl)-3-methylbenzamide] | < 300 nM | 300 to 1000 nM
CCn1cc2ncc(N[C@@H](C)c3cccc(NC(=O)c4ccc(CN5CC[C@@H](F)C5)c(C)c4)c3)nc2n1 [Compound 469, N-(3-((S)-1-((2-ethyl-2H-pyrazolo[3,4-b]pyrazin-6-yl)amino)ethyl)phenyl)-4-(((R)-3-fluoropyrrolidin-1-yl)methyl)-3-methylbenzamide] | < 300 nM | < 300 nM
CCn1cc2ncc(N[C@@H](C)c3cccc(NC(=O)c4ccc(CN5CCOCC5)c(C(F)(F)F)c4)c3)nc2n1 [Compound 424, (S)-N-(3-(1-((2-ethyl-2H-pyrazolo[3,4-b]pyrazin-6-yl)amino)ethyl)phenyl)-4-(morpholinomethyl)-3-(trifluoromethyl)benzamide] | < 300 nM | < 300 nM
CCn1cc2ncc(N[C@@H](C)c3cc(NC(=O)Cc4cc(C)c(Cl)cn4)ccc3C)nc2n1 [Compound 696, (S)-2-(5-chloro-4-methylpyridin-2-yl)-N-(3-(1-((2-ethyl-2H-pyrazolo[3,4-b]pyrazin-6-yl)amino)ethyl)-4-methylphenyl)acetamide] | < 300 nM | < 300 nM
COc1ccc2cc(N[C@@H](C)c3cccc(NC(=O)c4cncc(C)c4)c3)cnc2c1 [Compound 28, (S)-N-(3-(1-((7-methoxyquinolin-3-yl)amino)ethyl)phenyl)-5-methylnicotinamide] | < 300 nM | < 300 nM
Cc1c[nH]c2ncc(N[C@@H](C)c3cccc(NC(=O)c4cc(C(F)(F)F)n(C)n4)c3)nc12 [Compound 567, (S)-1-methyl-N-(3-(1-((7-methyl-5H-pyrrolo[2,3-b]pyrazin-2-yl)amino)ethyl)phenyl)-5-(trifluoromethyl)-1H-pyrazole-3-carboxamide] | < 300 nM | 300 to 1000 nM
C[C@H](Nc1cnc2cnn(C)c2n1)c1cccc(NC(=O)c2ccc3c(c2)OCCO3)c1 [Compound 68, (S)-N-(3-(1-((1-methyl-1H-pyrazolo[3,4-b]pyrazin-6-yl)amino)ethyl)phenyl)-2,3-dihydrobenzo[b][1,4]dioxine-6-carboxamide] | < 300 nM | < 300 nM
CCc1cc(C(=O)Nc2cccc([C@H](C)Nc3cnc4cn(CC)nc4n3)c2)ccc1CN1CCN(C)CC1 [Compound 498, (S)-3-ethyl-N-(3-(1-((2-ethyl-2H-pyrazolo[3,4-b]pyrazin-6-yl)amino)ethyl)phenyl)-4-((4-methylpiperazin-1-yl)methyl) benzamide] | < 300 nM | < 300 nM
COc1cccc2ncc(N[C@@H](C)c3cccc(NC(=O)c4cncc(C)c4)c3)cc12 [Compound 27, (S)-N-(3-(1-((5-methoxyquinolin-3-yl)amino)ethyl)phenyl)-5-methylnicotinamide] | < 300 nM | < 300 nM
CCNc1ncc(C(=O)Nc2ccc(C)c([C@H](C)Nc3cnc4cn(CC)nc4n3)c2)cc1C [Compound 513, (S)-N-(3-(1-((2-ethyl-2H-pyrazolo[3,4-b]pyrazin-6-yl)amino)ethyl)-4-methylphenyl)-6-(ethylamino)-5-methylnicotinamide] | < 300 nM | < 300 nM

Next, values leading:

IC50 [1] | IC50 [2] | Compound
< 300 nM | < 300 nM | CCNc1ncc(C(=O)Nc2cccc([C@H](C)Nc3cnc4cnn(C)c4n3)c2)cc1C [Compound 194, (S)-6-(ethylamino)-5-methyl-N-(3-(1-((1-methyl-1H-pyrazolo[3,4-b]pyrazin-6-yl)amino)ethyl)phenyl) nicotinamide]
< 300 nM | < 300 nM | Cc1c[nH]c2ncc(N[C@@H](C)c3cccc(NC(=O)c4ccc(C5CC5)nc4)c3)nc12 [Compound 558, (S)-6-cyclopropyl-N-(3-(1-((7-methyl-5H-pyrrolo[2,3-b]pyrazin-2-yl)amino)ethyl)phenyl)nicotinamide]
< 300 nM | 300 to 1000 nM | C[C@H](Nc1cnc2cnn(C)c2n1)c1cccc(NC(=O)c2cnc3ncn(C)c3c2)c1 [Compound 77, (S)-1-methyl-N-(3-(1-((1-methyl-1H-pyrazolo[3,4-b]pyrazin-6-yl)amino)ethyl)phenyl)-1H-imidazo[4,5-b] pyridine-6-carboxamide]
< 300 nM | < 300 nM | Cc1cncc(C(=O)Nc2cccc([C@H](C)Nc3cnc4ccc(C)cc4n3)c2)c1 [Compound 38, (S)-5-methyl-N-(3-(1-((7-methylquinoxalin-2-yl)amino)ethyl)phenyl)nicotinamide]
300 to 1000 nM | < 300 nM | Cc1cncc(C(=O)Nc2cccc([C@H](C)Nc3cnc4[nH]cc(C5CC5)c4n3)c2)c1 [Compound 569, (S)-N-(3-(1-((7-cyclopropyl-5H-pyrrolo[2,3-b]pyrazin-2-yl)amino)ethyl)phenyl)-5-methylnicotinamide]
< 300 nM | < 300 nM | C[C@H](Nc1cnc2cn[nH]c2n1)c1cccc(NC(=O)c2ccc(C(F)(F)F)nc2)c1 [Compound 99, (S)-N-(3-(1-((1H-pyrazolo[3,4 b]pyrazin-6-yl)amino)ethyl)phenyl)-6-(trifluoromethyl) nicotinamide]
< 300 nM | < 300 nM | CCn1cc2ncc(N[C@@H](C)c3cccc(NC(=O)Nc4ccc(C5CC5)nc4)c3)nc2n1 [Compound 737, (S)-1-(6-cyclopropylpyridin-3-yl)-3-(3-(1-((2-ethyl-2H-pyrazolo[3,4-b]pyrazin-6-yl)amino)ethyl)phenyl)urea]
< 300 nM | < 300 nM | C[C@H](Nc1cnc2cn[nH]c2n1)c1cccc(NC(=O)c2cncc(C3CC3)c2)c1 [Compound 93, (S)-N-(3-(1-((1H-pyrazolo[3,4-b]pyrazin-6-yl)amino)ethyl)phenyl)-5-cyclopropylnicotinamide]
